What all share (format): in vivo, human
Test [1] can be described thus: Sensory analysis of aromatic alkamide fractions by trained taste panel. Conditions: 0.5 ppm in 4% pea protein isolate solution. The method, then: Sensory analysis of the aromatic alkamides was carried out. Specifically, each isolated fraction, corresponding to each of the aromatic alkamides in Table 7 (samples 14 to 21) (0.5 ppm), was added to a 4% pea protein isolate solution and the ability of the fraction to mask protein off-taste, bitterness, and/or astringency was assessed by a trained taste panel.

Test [2] can be described thus: Trained taste panel, individual alkamides and blend vs ethanol extract. Conditions: 5% pea protein isolate with 200 μl ethanol, levels per sample in Table 12; for Liking Score: 1 is best, 10 is worst. How it is done: Additional compositions were prepared (Table 12) and assessed by a trained taste panel for taste modulating activity as compared to an ethanol extract of L. meyenii. The protein control sample was a 5% pea protein isolate solution with 200 μl of ethanol added thereto.

Test [3] can be described thus: Modulation of umami perception, trained panel. To be noted: 0.5 ppm in 0.4% Chicken Bouillon solution. How it is done: The ability of L. meyenii extracts and fractions thereof to modulate umami flavors was determined by adding 25 ppm of an ethanolic extract of L. meyenii root (Example 1), 2 ppm of an ethyl acetate layer of a crude ethanolic extract, or 0.5 ppm of a fraction enriched in N-benzyloctadecanamide to a 0.4% Chicken Bouillon solution (Knorr Chicken Bouillon). Sensory analyses of the above-referenced compositions were carried out by a trained panel, the results of which are presented in Table 10.

On to `CCCCCCCC/C=C\CCCCCCCC(=O)NCc1ccccc1` [N-Benzyloleamide], for which the “Sensory taste in 4% protein base” value in test [1] is reported as “Little masking”. Moreover, in test [2], the “Off Taste: Astringent (intensity)” value came out at 4, the “Off Taste: Beany (intensity)” value is given as 5, the “Off Taste: Bitter (intensity)” value is listed as 2 and the “Off Taste: Burnt (intensity)” value turned out to be 0. For the same compound, in test [2], the “Off Taste: Chalky (intensity)” value stood at 6, the “Off Taste: Earthy (intensity)” value was 2, the “Off Taste: Fishy (intensity)” value worked out at 0 and the “Off Taste: Gritty (intensity)” value was found to be 4. Moreover, in test [2], the “Off Taste: Metallic/Unpleasant (intensity)” value was found to be 2, the “Off Taste: Nutty (intensity)” value was 2, the “Off Taste: Sour (intensity)” value was 2 and the “Liking Score” value came to 2.

For `CCCCCCCCCCCCCCCCCC(=O)NCc1ccccc1` [N-Benzyloctadecanamide, N-Benzyl octadecanamide], in test [2], the “Off Taste: Astringent (intensity)” value is 2, the “Off Taste: Beany (intensity)” value is recorded as 3, the “Off Taste: Bitter (intensity)” value worked out at 2 and the “Off Taste: Burnt (intensity)” value is recorded as 0. In test [2], the “Off Taste: Chalky (intensity)” value is recorded as 2, the “Off Taste: Earthy (intensity)” value is 2, the “Off Taste: Fishy (intensity)” value is given as 0 and the “Off Taste: Gritty (intensity)” value came out at 2. For the same compound, in test [2], the “Off Taste: Metallic/Unpleasant (intensity)” value was 2, the “Off Taste: Nutty (intensity)” value is given as 2, the “Off Taste: Sour (intensity)” value came to 2 and the “Liking Score” value was determined as 1. Besides, the “Chicken Bouillon sensory (umami modulation)” value in test [3] is recorded as “Showed some enhancement”.

In the case of `CCCCCCCCCCCCCCCC(=O)NCc1ccccc1` [Macamide 1, N-benzylhexadecanamide], in test [2], the “Off Taste: Astringent (intensity)” value was 2, the “Off Taste: Beany (intensity)” value was determined as 3, the “Off Taste: Bitter (intensity)” value is on record as 2 and the “Off Taste: Burnt (intensity)” value is 0. Besides, in test [2], the “Off Taste: Chalky (intensity)” value turned out to be 2, the “Off Taste: Earthy (intensity)” value is listed as 2, the “Off Taste: Fishy (intensity)” value is on record as 0 and the “Off Taste: Gritty (intensity)” value worked out at 2. Moreover, in test [2], the “Off Taste: Metallic/Unpleasant (intensity)” value is on record as 1, the “Off Taste: Nutty (intensity)” value amounted to 0, the “Off Taste: Sour (intensity)” value is 2 and the “Liking Score” value is reported as 1.

As to `CCCCCCCCC/C=C/C=C/C(=O)CCCC(=O)NCc1ccccc1` [Macamide 2], in test [1], the “Sensory taste in 4% protein base” value is “Good masking”. Besides, in test [2], the “Off Taste: Astringent (intensity)” value turned out to be 2, the “Off Taste: Beany (intensity)” value came out at 5, the “Off Taste: Bitter (intensity)” value is on record as 3 and the “Off Taste: Burnt (intensity)” value turned out to be 0. Moreover, in test [2], the “Off Taste: Chalky (intensity)” value was determined as 2, the “Off Taste: Earthy (intensity)” value was 2, the “Off Taste: Fishy (intensity)” value was determined as 0 and the “Off Taste: Gritty (intensity)” value was 2. In test [2], the “Off Taste: Metallic/Unpleasant (intensity)” value is on record as 1, the “Off Taste: Nutty (intensity)” value came to 2, the “Off Taste: Sour (intensity)” value is recorded as 3 and the “Liking Score” value stood at 2.

For `CC/C=C\C/C=C\C/C=C\CCCCCCCC(=O)NCc1ccccc1` [N-Benzyl linolenamide, N-Benzyllinolenamide], the “Sensory taste in 4% protein base” value in test [1] is on record as “Moderate masking”.

Take `CCCCC/C=C\C/C=C\CCCCCCCC(=O)NCc1ccccc1` [N-Benzyl linoleamide, N-Benzyllinoleamide]: the “Sensory taste in 4% protein base” value in test [1] is reported as “Little masking”.
